Reference: patent US5132401A (George Washington University, Office of Sponsored Research, priority 1989, dated 1992)

Test system: anterior pituitary cells
Assay: PRL assay: in vitro prolactin release from normal anterior pituitary cells, RIA
Format: cell-based, Sprague-Dawley rats
Conditions: maximum stimulatory concentration of TRH (100 nM); FIG. 12
Procedure: Inhibitory neurohormones and drugs were added during the final 20 minutes of the second rinse. […] After incubations, the medium is quickly removed and saved for radioimmunoassay (RIA).
PRL and GH were determined by standard RIA techniques (media diluted 1:30, 25-70 μl samples) using materials and protocols supplied by the NIDDK Rat Pituitary Hormone Distribution Program. Inter- and intra-assay variations for PRL and GH were less than 8% to 10%, respectively. All samples were assayed in duplicate, with results expressed in terms of NIDDK standards (rat PRL RP-2 and rat GH RP-1).

NC(=O)[C@@H]1CCCN1C(=O)[C@H](Cc1cnc[nH]1)NC(=O)[C@@H]1CCC(=O)N1 [TRH, thyrotropin releasing hormone]
increase in PRL release compared to the control value: 480%
